Where a name gives a salt, the structure may show the parent alone.

This assay relates to recombinant guanylate cyclase reporter cell line. The assay is described as follows: Effect on a recombinant guanylate cyclase reporter cell line. The class given is cell-based. As to conditions: in some cases mean values from individual determinations, read-out: MEC (minimum effective concentration). On the procedure: B-2. Effect on a Recombinant Guanylate Cyclase Reporter Cell Line
The cellular activity of the compounds according to the invention is determined using a recombinant guanylate cyclase reporter cell line, as described in F. Wunder et al., Anal. Biochem. 339, 104-112 (2005).
Representative MEC values (MEC=minimum effective concentration) for the compounds of the invention are shown in the table below (in some cases as mean values from individual determinations): […]
For `Cc1nc2c(OCc3c(F)cccc3F)cccn2c1-c1ncnc(NCC(C)(N)CCC(F)(F)F)n1` (single isomer, unassigned; enantiomer b) [Example 12, ent-N^1-(4-{8-[(2,6-Difluorobenzyl)oxy]-2-methylimidazo[1,2-a]pyridin-3-yl}-1,3,5-triazin-2-yl)-5,5,5-trifluoro-2-methylpentane-1,2-diamine (enantiomer B)], the minimal effective concentration was 1 µM.

Consider `Cc1nc2c(OCc3c(F)cccc3F)cccn2c1-c1ccc(NCc2ccccc2)nc1` [Example 1, N-Benzyl-5-{8-[(2,6-difluorobenzyl)oxy]-2-methylimidazo[1,2-a]pyridin-3-yl}pyridine-2-amine], for which the minimal effective concentration amounted to 0.1 µM.

As for `COCCNc1ccc(-c2c(C)nc3c(OCc4c(F)cccc4F)cccn23)cn1` [Example 2], the minimal effective concentration was found to be 0.1 µM.

In the case of `CCN(C)c1ccc(-c2c(C)nc3c(OCc4c(F)cccc4F)cccn23)cn1` [Example 3], the minimal effective concentration was found to be 0.2 µM.

With `Cc1nc2c(OCc3c(F)cccc3F)cccn2c1-c1ccc(N2CC(C)OC(C)C2)nc1` (stereo not drawn) [Example 4], the minimal effective concentration was determined as 1 µM.

On to `Cc1nc2c(OCc3c(F)cccc3F)cccn2c1-c1ccc(Nc2ccccc2)nc1` [Example 5], for which the minimal effective concentration is 3 µM.

In the case of `Cc1nc2c(OCc3c(F)cccc3F)cccn2c1-c1cnc(N2CCN(C)CC2)nc1` [Example 6, 8-[(2,6-Difluorobenzyl)oxy]-2-methyl-3-[2-(4-methylpiperazin-1-yl)pyrimidin-5-yl]imidazo[1,2-a]pyridine], the minimal effective concentration turned out to be 10 µM.

Regarding `Cc1cc(OCc2c(F)cccc2F)c2nc(C)c(-c3nc(N)nc(N)n3)n2c1` [Example 7, 6-{8-[(2,6-Difluorobenzyl)oxy]-2,6-dimethylimidazo[1,2-a]pyridin-3-yl}-1,3,5-triazine-2,4-diamine], the minimal effective concentration is 0.3 µM.

For the compound `Cc1cc(OCc2c(F)cccc2F)c2nc(C)c(-c3nc(N)nc(N(C)C)n3)n2c1` [Example 8, 6-{8-[(2,6-Difluorobenzyl)oxy]-2,6-dimethylimidazo[1,2-a]pyridin-3-yl}-N, N-dimethyl-1,3,5-triazine-2,4-diamine], the minimal effective concentration stood at 0.3 µM.

As to `CCCNc1nc(N)nc(-c2c(C)nc3c(OCc4c(F)cccc4F)cc(C)cn23)n1` [Example 9, 6-{8-[(2,6-Difluorobenzyl)oxy]-2,6-dimethylimidazo[1,2-a]pyridin-3-yl}-N-propyl-1,3,5-triazine-2,4-diamine], the minimal effective concentration is 0.3 µM.

In the case of `Cc1cc(OCc2c(F)cccc2F)c2nc(C)c(-c3cc(NCC(C)(C)N)ncc3F)n2c1` [Example 10, N′-(4-{8-[(2,6-Difluorobenzyl)oxy]-2,6-dimethylimidazo[1,2-a]pyridin-3-yl}-5-fluoropyridin-2-yl)-2-methylpropane-1,2-diamine], the minimal effective concentration worked out at 0.1 µM.

Turning to `Cc1nc2c(OCc3c(F)cccc3F)cccn2c1-c1nc(Cl)nc(NCC(C)(C)N)n1` [Example 11, N′-(4-Chloro-6-{8-[(2,6-difluorobenzyl)oxy]-2-methylimidazo[1,2-a]pyridin-3-yl}-1,3,5-triazin-2-yl)-2-methylpropane-1,2-diamine], the minimal effective concentration came to 0.3 µM.

For the compound `Cc1cc(OCc2c(F)cccc2F)c2nc(C)c(-c3ccnc(N4CCNCC4)c3)n2c1` [Example 13, 8-[(2,6-Difluorobenzyl)oxy]-2,6-dimethyl-3-[2-(piperazin-1-yl)pyridin-4-yl]imidazo[1,2-a]pyridine], the minimal effective concentration was 0.2 µM.

Consider `Cc1cc(OCc2c(F)cccc2F)c2nc(C)c(-c3cccc(N4CCCC4)c3)n2c1` [Example 14, 8-[(2,6-Difluorobenzyl)oxy]-2,6-dimethyl-3-[3-(pyrrolidin-1-yl)phenyl]imidazo[1,2-a]pyridine], for which the minimal effective concentration is 6.5 µM.

Take `CC(=O)Nc1cccc(-c2c(C)nc3c(OCc4c(F)cccc4F)cc(C)cn23)c1` [Example 15, N-(3-{8-[(2,6-Difluorobenzyl)oxy]-2,6-dimethylimidazo[1,2-a]pyridin-3-yl}phenyl)acetamide]: the minimal effective concentration came out at 0.02 µM.

Consider `Cc1cc(OCc2c(F)ccc(F)c2F)c2nc(C)c(-c3nccc(N4CCCC4)n3)n2c1` [Example 16, 2,6-Dimethyl-3-[4-(pyrrolidin-1-yl)pyrimidin-2-yl]-8-[(2,3,6-trifluorobenzyl)oxy]imidazo[1,2-a]pyridine trifluoroacetate], for which the minimal effective concentration amounted to 3 µM.

In the case of `CC(=O)Nc1cccc(-c2c(C)nc3c(OCC4CCCCC4)cccn23)c1` [Example 19, N-{3-[8-(Cyclohexylmethoxy)-2-methylimidazo[1,2-a]pyridin-3-yl]phenyl}acetamide], the minimal effective concentration amounted to 0.2 µM.

With `CC(=O)Nc1cccc(-c2c(C)nc3c(OCc4ncccc4F)cc(Cl)cn23)c1` [Example 20, N-(3-{6-Chloro-8-[(3-fluoropyridin-2-yl)methoxy]-2-methylimidazo[1,2-a]pyridin-3-yl}phenyl)acetamide], the minimal effective concentration was determined as 0.3 µM.

The record behind these values is patent US10292970B2, “Heteroaryl-substituted imidazo[1,2-A]pyridines and their use” (BAYER PHARMA AKTIENGESELLSCHAFT, priority 2014, dated 2019).
